Reference: the NIST ThermoML archive (doi:10.1021/je8008182)
Where “and” joins values, the source holds several entries; their conditions need not be identical. Equal entries are not always repeated.

Legend:
[1] = Liquid; for mass density: Pycnometric method; for viscosity: Capillary tube (Ostwald / Ubbelohde) method
[2] = wn = mass fraction of the nth substance listed; settings: 101 kPa, Liquid, w1 = 0.2; for mass density: Pycnometric method; for viscosity: Capillary tube (Ostwald / Ubbelohde) method
[3] = xn = mol fraction of the nth substance listed; settings: 101 kPa, Liquid, x2 = 0; for viscosity: Capillary tube (Ostwald / Ubbelohde) method; for mass density: Pycnometric method

Cc1ccncc1 [4-methylpyridine]
[1]
Settings | mass density, 101 kPa | mass density, 101.33 kPa [kg/m3] | viscosity, 101 kPa [mPa·s] | viscosity, 101.33 kPa [mPa·s]
283.15 K | 958.2 kg/m3 | 958.2 | – | –
293.15 K | 955.1 kg/m3 | 955.1 | – | –
298.15 K | 955.4 kg/m3 and 951.1 kg/m3 | 951.1 | – | 0.8723
303.15 K | 951.1 kg/m3 | – | 0.8175 | –
308.15 K | 941.3 kg/m3 | – | 0.7774 | –
313.15 K | 936.6 kg/m3 | – | 0.7368 | –
318.15 K | 932.1 kg/m3 | – | 0.6855 | –
323.15 K | 927.7 kg/m3 | – | 0.6505 | –
328.15 K | 923.2 kg/m3 | – | 0.5905 | –
333.15 K | 918.5 kg/m3 | – | 0.5329 | –
338.15 K | 914 kg/m3 | – | 0.4815 | –

O [water]
[1], 101 kPa
Settings | mass density [kg/m3] | viscosity [mPa·s]
298.15 K | – | 0.8903
303.15 K | – | 0.7973
308.15 K | – | 0.719
313.15 K | – | 0.6526
318.15 K | – | 0.5972
323.15 K | 988 | 0.5468
328.15 K | 985.7 | 0.5042
333.15 K | 983.2 | 0.4669
338.15 K | 980.6 | 0.4341

O=S(=O)(O)O [sulfuric acid] + O
[2]
Settings | mass density [kg/m3] | viscosity [mPa·s]
283.15 K | 1145 | –
293.15 K | 1139.6 | 1.543
298.15 K | 1136.4 | –
303.15 K | 1133.7 | 1.21
313.15 K | 1127.8 | 0.987
323.15 K | 1121.9 | 0.824
333.15 K | 1115.7 | 0.716
343.15 K | 1108.9 | 0.638

O [water] + Cc1ccncc1
[3]
Settings | mass density [kg/m3] | viscosity [mPa·s]
298.15 K | – | 0.8903
303.15 K | – | 0.7973
308.15 K | – | 0.719
313.15 K | – | 0.6526
318.15 K | – | 0.5972
323.15 K | 988 | 0.5468
328.15 K | 985.7 | 0.5042
333.15 K | 983.2 | 0.4669
338.15 K | 980.6 | 0.4341
